Each structure is given as a SMILES string. Converted amounts (≈) assume the structure as drawn.

Test [1] deals with Human periodontal ligament fibroblasts. The experiment in a line: MTT cell viability assay, periodontal fibroblasts. The conditions noted are these: Human periodontal fibroblast, 24 h treatment. Type of test: cell-based. As to the method:
(§1) Metastatic ovarian adenocarcinoma (SKOV-3) and normal Chinese hamster ovary (CHO) cell lines were originally obtained from the American Type Culture Collection (ATCC; Manassas, VA). SKOV-3 cells were cultured in McCoy’s 5A medium and CHO cells were cultured in F12K medium. A human periodontal ligament fibroblast cell line was purchased from Lonza, USA and maintained in stroma cell basal medium. T1074 (normal immortalized human ovarian surface epithelial cell line) was originally purchased from Applied Biological Materials (abm®) Canada and cultured in Prigrow 1 medium.
(§2) The inhibitory effects of artonin E and two positive controls paclitaxel and carboplatin were examined by MTT assay. Cells at a density of 5×10^3cells/well were placed in a 96-well plate and left for 24 h to attach. The attached cells were exposed to artonin E, paclitaxel, and carboplatin at different concentrations and incubated for 24, 48, and 72 h. Subsequently, 20 μL of 5 mg/mL MTT solution was added after drug treatment and the resulting mixture was incubated for 4 h to form purple formazan. Afterward, 100 μL of dimethyl sulfoxide (DMSO) was transferred into each well to dissolve the purple formazan, and results were measured using a microplate reader (Tecan Infinite M 200 PRO, Männedorf, Switzerland) at an absorbance of 570 nm. […]
(Formazan colour is commonly taken as a measure of viable cells.)

The test system of a further test is CHO cells. The experiment in a line: MTT cell viability assay, CHO. Format: cell-based, Chinese hamster. Particulars: Cricetulus griseus, 24 h treatment. As to the method:
as §1, §2

In the next test the test system is SKOV-3 cells. The experiment in a line: Clonogenic assay. Format: cell-based, human. The conditions noted are these: three weeks incubation. As to the method: The SKOV-3 cells were trypsinized, centrifuged, and supplemented with fresh media. The cells were immediately counted and seeded (300 cells/plate) in a 60 mm Petridish, and left overnight to attach. The attached cells were treated with 0, 1, 5, 10, 15, and 20 μg/mL of artonin E for 24 h. Following incubation, the treated media were removed and fresh media were added. The cells were incubated for three weeks to form colonies. Surviving colonies were fixed with 90% ethanol and stained with crystal violet.

A further test concerns cytochrome c. In words: Cytochrome c releasing apoptosis assay (Western blot of fractions). Type of test: cell-based, human. As to the method: Cytochrome c releasing apoptosis assay kit (ab65311) was purchased from abcam® (Cambridge, UK). The assay was conducted according to the manufacturer’s instruction. Briefly, SKOV-3 cells were induced with artonin E at different time points. The induced and un-induced cells were collected and centrifuged at […] for 5 minutes at 4°C. The cells were washed twice with 10 mL of ice-cold PBS, centrifuged and collected the pellet. The fresh pellets were then re-suspended with 1.0 mL of 1X cytosol extraction buffer mix containing DTT and Protease Inhibitor and incubated on ice for 10 minutes. Cells were then Dounce-homogenized before centrifuging at 7,000×g for 10 min at 4°C. The supernatant were collected and saved as cytosolic fractions. The remaining pellets were resuspended in 0.1 mL mitochondrial extraction buffer, vortexed for 10 seconds and saved as mitochondrial fractions. Both cytosolic and mitochondrial fractions were applied for protein analysis and proceeded with standard Western blot procedure.
SKOV-3 cells were plated in a 75cm^2 culture flask and exposed to artonin E for 24, 48, and 72 h. […] Protein concentration was determined using a BCA protein assay reagent kit (Bio-Rad, USA). […] The protein bands were detected using pico or femto chemiluminescence (ECL system) and visualized using a UV gel documentation system. […]
Background: Immunoblotting shows a protein as a band on a membrane.

The test system of another test is caspase-3. In words: Colorimetric caspase-3 activation assay. Type of test: cell-based, human. Particulars: SKOV-3, 8 μg/mL, 48 and 72 h treatment. As to the method: Calorimetric assay of the activation of caspases-3, -8, and -9 was conducted using R & D system kit, USA. Briefly, in a T75cm^2 flask 90% confluent SKOV-3 cells were induced with artonin E for 24, 48, and 72 h. The induced cells were trypsinized and centrifuged at 1,800 rpm for 10 min. The fresh pellets were washed with cold PBS and immediately lysed with protein lysis buffer. The cell lysate was then kept on ice for 10 min, centrifuged at 10,000 g for 15 min, and transferred into a new tube. The fresh cell lysate (50 μL), which contained 100–200 μg of protein, was added into a 96-well plate in triplicate. Fifty microliters of reaction buffer and 5 μL of caspase were then transferred into each designated well before incubating the plate in a CO2 incubator at 37°C for 2 h. A microplate reader (Tecan Infinite M 200 PRO, Männedorf, Switzerland) was used for analysis at a wavelength of 405 nm.

The test system of the next test is caspase-8. The experiment in a line: Western blot, caspase-8. Type of test: cell-based, human. The conditions noted are these: SKOV-3, 8 μg/mL, after 48 and 72 h. As to the method: (§3) SKOV-3 cells were plated in a 75cm^2 culture flask and exposed to artonin E for 24, 48, and 72 h. Lysis buffer (50 mM Tris–HCl, pH 8.0; 120 mM NaCl, 0.5% NP-40; and 1 mM PMSF) was used to extract the total protein. Protein concentration was determined using a BCA protein assay reagent kit (Bio-Rad, USA). Equal amounts of protein (40 μg) extract were subjected to SDS-PAGE and electroblotted onto a polyvinylidenedifluoride membrane (Bio-Rad). Blots were then blocked with 5% non-fat milk in TBS-Tween buffer 7 (0.12 M Tris-base, 1.5 M NaCl, and 0.1% Tween 20) for 1 h at room temperature. After incubating with the appropriate primary antibody overnight at 4°C, the blots were washed and then incubated with horseradish peroxidase conjugated secondary antibody for 1 h at room temperature. The protein bands were detected using pico or femto chemiluminescence (ECL system) and visualized using a UV gel documentation system. The subsequent primary antibodies, which include those for β-actin (1:10,000), Bax (1:10,000), Bcl-2 (1:10,000), HSP-70 (1:10,000), survivin (1:10,000),caspase -3 (1:10,000), caspase -8 (1:10,000), caspase -9 (1;10,000) and cytochrome c (1:200) were purchased from Abcam, Cambridge, United Kingdom.

The test system of a further test is Bcl-2. The experiment in a line: Western blot, Bcl-2. Type of test: cell-based, human. The conditions noted are these: SKOV-3, 8 μg/mL. As to the method:
as §3

A further test has as its system HSP70. The experiment in a line: Western blot, HSP70. Format: cell-based, human. The conditions noted are these: SKOV-3, 8 μg/mL, 72 h after treatment. As to the method: as §3
Another test deals with survivin. The experiment in a line: Western blot, survivin. Format: cell-based, human. The conditions noted are these: SKOV-3, 8 μg/mL, 72 h after treatment. As to the method: as §3
For another test, the system named is H460 cells. Details: method as in PMID 23225436. Particulars: dose-dependent manner; cited from earlier work.

The term IC50 denotes the concentration needed to halve the response being measured. Lower therefore signals inhibition by little substance. Take `CC(C)=CCc1c(-c2cc(O)c(O)cc2O)oc2c3c(cc(O)c2c1=O)OC(C)(C)C=C3` [Artonin E, artonin E]: the values for the IC50 (in [1]; in the test on CHO cells) were 67 ± 1 µg/mL (≈ 154 µM) and 57.6 ± 2 µg/mL (≈ 132 µM), respectively. For the same compound, the colony formation result in the test on SKOV-3 cells (SKOV-3, 5 μg/mL for 24 h) is recorded as “almost half of the colonies were reduced”; in the test with SKOV-3 cells (SKOV-3, 10 μg/mL for 24 h), “decreasing sharply”; with SKOV-3 cells (SKOV-3, 15 and 20 μg/mL for 24 h) it was “No colonies were formed”. Further, the “expression level of cytochrome c in cytosolic fraction” value with cytochrome c (SKOV-3, 8 μg/mL, 24, 48, 72 h) is recorded as “increase”. For the same compound, the “expression level of cytochrome c in mitochondrial fraction” value in the test on cytochrome c (SKOV-3, 8 μg/mL, time-dependent (24, 48, 72 h)) was “significantly (p<0.05) decreased”. In the test with caspase-3, the “activation of caspase-3” value is on record as “significantly (p<0.05)elevated”. Besides, the “protein expression level of caspase-8” value in the test on caspase-8 is listed as “up-regulated”. For the same compound, the Bcl-2 level result in the test on Bcl-2 (24 h post treatment) is listed as “significantly lower”; in the test on Bcl-2 (after 48 h and 72 h) it was “almost diminished”. Moreover, the “level of HSP70 expression” value in the test on HSP70 is recorded as “reduced significantly”. Besides, the “level of survivin expression” value in the test on survivin is reported as “reduced significantly”. In the test on H460 cells, the “anoikis (detachment-induced apoptosis) of H460 cells” value was “enhances anoikis”.

These data come from publication PMC4809498, “Artonin E Induces Apoptosis via Mitochondrial Dysregulation in SKOV-3 Ovarian Cancer Cells” (PLoS ONE, 2016).
